Reference: US11707440B2 (priority 2017, dated 2023)
Where two headings read alike, the source gives them in different places.

Test system: subjects with MDD at imminent risk for suicide
[1] = TEAE in ≥5% of subjects in any treatment group, double-blind phase, safety analysis set
[2] = TEAE leading to study discontinuation, double-blind phase, safety analysis set
[3] = adverse events, follow up phase, safety (FU) analysis set

SMILES: CN[C@]1(c2ccccc2Cl)CCCCC1=O [Esketamine 84 mg]
- Abdominal pain [1]: 0 no. subjects (%)
- Acne [1]: 2 (5.7%) no. subjects (%)
- Agitation [1]: 3 (8.6%) no. subjects (%)
- Anxiety [1]: 6 (17.1%) no. subjects (%)
- Blepharospasm [1]: 0 no. subjects (%)
- Blood pressure increased [1]: 2 (5.7%) no. subjects (%)
- Constipation [1]: 0 no. subjects (%)
- Diarrhea [1]: 3 (8.6%) no. subjects (%)
- Diplopia [1]: 2 (5.7%) no. subjects (%)
- Dissociation [1]: 11 (31.4%) no. subjects (%)
- Dizziness [1]: 12 (34.3%) no. subjects (%)
- Dizziness postural [1]: 2 (5.7%) no. subjects (%)
- Dry mouth [1]: 3 (8.6%) no. subjects (%)
- Dysgeusia [1]: 11 (31.4%) no. subjects (%)
- Ear and labyrinth disorders [1]: 9 (25.7%) no. subjects (%)
- Epistaxis [1]: 0 no. subjects (%)
- Euphoric mood [1]: 4 (11.4%) no. subjects (%)
- Eye disorders [1]: 7 (20.0%) no. subjects (%)
- Fatigue [1]: 2 (5.7%) no. subjects (%)
- Feeling abnormal [1]: 3 (8.6%) no. subjects (%)
- Feeling cold [1]: 2 (5.7%) no. subjects (%)
- Flatulence [1]: 1 (2.9%) no. subjects (%)
- Gastrointestinal disorders [1]: 19 (54.3%) no. subjects (%)
- General disorders and administration site conditions [1]: 10 (28.6%) no. subjects (%)
- Headache [1]: 11 (31.4%) no. subjects (%)
- Hyperacusis [1]: 2 (5.7%) no. subjects (%)
- Hyperhidrosis [1]: 2 (5.7%) no. subjects (%)
- Hypoesthesia [1]: 3 (8.6%) no. subjects (%)
- Hypoesthesia oral [1]: 2 (5.7%) no. subjects (%)
- Infections and infestations [1]: 1 (2.9%) no. subjects (%)
- Insomnia [1]: 3 (8.6%) no. subjects (%)
- Intranasal paranesthesia [1]: 0 no. subjects (%)
- Investigations [1]: 5 (14.3%) no. subjects (%)
- Nasal congestion [1]: 1 (2.9%) no. subjects (%)
- Nasal discomfort [1]: 3 (8.6%) no. subjects (%)
- Nausea [1]: 13 (37.1%) no. subjects (%)
- Nervous system disorders [1]: 25 (71.4%) no. subjects (%)
- Oropharyngeal pain [1]: 2 (5.7%) no. subjects (%)
- Panic attack [1]: 0 no. subjects (%)
- Paresthesia [1]: 6 (17.1%) no. subjects (%)
- Paresthesia oral [1]: 2 (5.7%) no. subjects (%)
- Pharyngeal hypoesthesia [1]: 2 (5.7%) no. subjects (%)
- Pollakiuria [1]: 0 no. subjects (%)
- Psychiatric disorders [1]: 20 (57.1%) no. subjects (%)
- Rash [1]: 1 (2.9%) no. subjects (%)
- Renal and urinary disorders [1]: 1 (2.9%) no. subjects (%)
- Respiratory, thoracic and mediastinal disorders [1]: 9 (25.7%) no. subjects (%)
- Rhinalgia [1]: 0 no. subjects (%)
- Rhinorrhoea [1]: 0 no. subjects (%)
- Sedation [1]: 6 (17.1%) no. subjects (%)
- Skin and subcutaneous tissue disorders [1]: 5 (14.3%) no. subjects (%)
- Somnolence [1]: 4 (11.4%) no. subjects (%)
- Suicidal ideation [1]: 2 (5.7%) no. subjects (%)
- Throat irritation [1]: 3 (8.6%) no. subjects (%)
- Tinnitus [1]: 2 (5.7%) no. subjects (%)
- Toothache [1]: 0 no. subjects (%)
- Upper respiratory tract infection [1]: 0 no. subjects (%)
- Vertigo [1]: 4 (11.4%) no. subjects (%)
- Vision blurred [1]: 3 (8.6%) no. subjects (%)
- Vomiting [1]: 7 (20.0%) no. subjects (%)
- Weight increased [1]: 2 (5.7%) no. subjects (%)
- Aggression [2]: 1 (2.9%) no. subjects (%)
- Agitation [2]: 1 (2.9%) no. subjects (%)
- Cardiac disorders [2]: 1 (2.9%) no. subjects (%)
- Dissociative disorder [2]: 0 no. subjects (%)
- Dizziness [2]: 1 (2.9%) no. subjects (%)
- Dysgeusia [2]: 1 (2.9%) no. subjects (%)
- Dyspnea [2]: 1 (2.9%) no. subjects (%)
- Gastrointestinal disorders [2]: 1 (2.9%) no. subjects (%)
- Nausea [2]: 1 (2.9%) no. subjects (%)
- Nervous system disorders [2]: 2 (5.7%) no. subjects (%)
- Panic attack [2]: 0 no. subjects (%)
- Psychiatric disorders [2]: 2 (5.7%) no. subjects (%)
- Respiratory, thoracic and mediastinal disorders [2]: 1 (2.9%) no. subjects (%)
- Total no. subjects with TEAE leading to study discontinuation [2]: 5 (14.3%) no. subjects (%)
- Ventricular extrasystoles [2]: 1 (2.9%) no. subjects (%)
- Abdominal pain [3]: 1 (3.7%) no. subjects (%)
- Abdominal tenderness [3]: 1 (3.7%) no. subjects (%)
- Aphthous ulcer [3]: 0 no. subjects (%)
- Back pain [3]: 1 (3.7%) no. subjects (%)
- Bronchitis [3]: 0 no. subjects (%)
- Cellulitis [3]: 0 no. subjects (%)
- Cogwheel rigidity [3]: 1 (3.7%) no. subjects (%)
- Contusion [3]: 1 (3.7%) no. subjects (%)
- Depressed mood [3]: 0 no. subjects (%)
- Depression [3]: 1 (3.7%) no. subjects (%)
- Diarrhea [3]: 1 (3.7%) no. subjects (%)
- Dizziness [3]: 1 (3.7%) no. subjects (%)
- Drug hypersensitivity [3]: 0 no. subjects (%)
- Dry mouth [3]: 2 (7.4%) no. subjects (%)
- Dysgeusia [3]: 1 (3.7%) no. subjects (%)
- Ear and labyrinth disorders [3]: 0 no. subjects (%)
- Ear infection [3]: 1 (3.7%) no. subjects (%)
- Epistaxis [3]: 1 (3.7%) no. subjects (%)
